Laboratory results: patent US7358236B1 (priority 2002, dated 2008)
Where two headings read alike, the source gives them in different places.

What was measured:
heart tissue = assay: Histopathology of heart tissue after single dose VTA, and protective effect of propranolol; conditions: for Heart histopathology with propranolol pretreatment: 2 mg/kg Propranolol Hydrochloride 1 hour prior to CA-4DP 100 mg/kg
tumor blood flow = conditions: cited from earlier work
[1] = rat, in vivo

Row | Compound | MABP (antihypertensive co-administered with CA-4DP 30 mg/kg i.p., 1 hour after CA-4DP dosing) [mmHg] | Heart Rate (antihypertensive co-administered with CA-4DP 30 mg/kg i.p., 1 hour post CA-4DP dosing) [bpm] | Heart histopathology with propranolol pretreatment (heart tissue; 6 or 24 hours post-treatment) | Heart histopathology with propranolol pretreatment (heart tissue; 4 days) | Blood flow in vital tissues (heart, kidney, small intestine) (tumor blood flow; 100 mg/kg, rat) | Reduction in tumor blood flow (tumor blood flow; 100 mg/kg, rat) [fold] | Mean Arterial Blood Pressure change (tumor blood flow; almost immediately following administration) | MABP stabilized level [1] [mmHg] | Heart Rate (rat, in vivo) [bpm] | Increase of MABP versus control animals (rat, in vivo, ip, 30 mg/kg) [%] | MABP (rat, in vivo, ip, 30 mg/kg) [mmHg] | Histopathological changes in the heart (heart tissue; CA-4DP 100 mg/kg i.v. single dose, overall) | Histopathological changes in the heart (heart tissue; CA-4DP 100 mg/kg i.v., at 6 hours) | Histopathological changes in the heart (heart tissue; CA-4DP 100 mg/kg i.v., at 24 hours) | Histopathological changes in the heart (heart tissue; CA-4DP 100 mg/kg i.v., at 4 days)
1 | CC(C)NCC(O)COc1cccc2ccccc12 (racemic) [propranolol, 1-[ispropylamino]3-[1-napthyloxy]-2-propanol hydrocholoride] | 80.2 | 248.5 | no abnormal CA-4DP-related histopathology | cardiac tissue remained healthy | – | – | – | – | – | – | – | – | – | – | –
2 | Combretastatin A-4 Disodium Phosphate Prodrug [CA-4DP] | – | – | – | – | maintained at normal levels | 100 | substantial but transient increase | 110 | 265.6 | 72 | 107.9 | necrosis and degeneration of cardiac cells in some localized areas | some blood vessels in the heart tissue were observed dilated | Inflammation cells infiltrated the heart tissue | loss of striation, fragmentation, a manifestation of necrosis and degeneration
